Measurements published in the supplement of paper PMC8671470.

tested on: LAMA-84; experiment: cell viability (% survival relative to DMSO control, bortezomib = 0%); higher = less cytotoxic; details: 10 nM; 72 h
In short: (§1)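 Reported values are percent survival from duplicate wells, averaged. Fifteen myeloid leukaemia cell lines were treated in 384-well plates with compounds at 1, 10, 100, 1000 or 10000 nM for 72 h at 37 °C in 5% CO2. Signals from CellTiter-Glo luminescence were scaled with vehicle as 100% and a 10 µM positive control as 0%.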

Point of comparison: CN1CC(=O)N2[C@H](c3ccc4c(c3)OCO4)c3[nH]c4ccccc4c3C[C@@H]2C1=O [Tadalafil], cell viability 97.9%. Against it:
- Cn1c2cc(S(C)=O)sc2c2cnn(Cc3cccc(N)c3)c(=O)c21 (centres undefined) [TEPP-46] — higher, 98.2%
- CCCCCCCCCCCCCCOc1ccc(C(=O)O)o1 [TOFA] — higher, 105%

same assay, conditions: 100 nM; 72 h

Point of comparison: C#CCN[C@@H]1CCc2ccccc21 [Rasagiline], cell viability 106%. Against it:
- CC(C)(F)C[C@H](N[C@@H](c1ccc(-c2ccc(S(C)(=O)=O)cc2)cc1)C(F)(F)F)C(=O)NC1(C#N)CC1 [Odanacatib] — the same, 106%
- Nc1nc(O)c2c(CCc3ccc(C(=O)N[C@@H](CCC(=O)O)C(=O)O)cc3)c[nH]c2n1 [Pemetrexed] — lower, 40%
- C=C1NC(=O)c2cc(CN(C)c3ccc(C(=O)N[C@@H](CCC(=O)O)C(=O)O)s3)ccc2N1 [Raltitrexed] — lower, 27.7%
- CNC(=C[N+](=O)[O-])NCCSCc1ccc(CN(C)C)o1 [Ranitidine] — lower, 105%
- NC(CCC(=O)NC(CSCc1ccc(Br)cc1)C(=O)NCC(=O)OC1CCCC1)C(=O)OC1CCCC1 (centres undefined) [S-para-Bromobenzylglutathione cyclopentyl diester] — lower, 93.3%
- COc1cc(C2Oc3cc(C4Oc5cc(O)cc(O)c5C(=O)C4O)ccc3OC2CO)ccc1O (centres undefined) [Silibinin] — higher, 110%
- Fc1ccc(CNc2ncnc3ccc(F)cc23)cc1 [Spautin 1] — lower, 93.5%
- Cn1c2cc(S(C)=O)sc2c2cnn(Cc3cccc(N)c3)c(=O)c21 (centres undefined) [TEPP-46] — lower, 98.2%
- CCCCCCCCCCCCCCOc1ccc(C(=O)O)o1 [TOFA] — lower, 102%
- CN1CC(=O)N2[C@H](c3ccc4c(c3)OCO4)c3[nH]c4ccccc4c3C[C@@H]2C1=O [Tadalafil] — lower, 96.8%

same assay, conditions: 1000 nM; 72 h

Point of comparison: NC(CCC(=O)NC(CSCc1ccc(Br)cc1)C(=O)NCC(=O)OC1CCCC1)C(=O)OC1CCCC1 (centres undefined) [S-para-Bromobenzylglutathione cyclopentyl diester], cell viability 98.2%. Against it:
- CC(C)(F)C[C@H](N[C@@H](c1ccc(-c2ccc(S(C)(=O)=O)cc2)cc1)C(F)(F)F)C(=O)NC1(C#N)CC1 [Odanacatib] — lower, 89%
- Nc1nc(O)c2c(CCc3ccc(C(=O)N[C@@H](CCC(=O)O)C(=O)O)cc3)c[nH]c2n1 [Pemetrexed] — lower, 30.7%
- C=C1NC(=O)c2cc(CN(C)c3ccc(C(=O)N[C@@H](CCC(=O)O)C(=O)O)s3)ccc2N1 [Raltitrexed] — lower, 22.4%
- CNC(=C[N+](=O)[O-])NCCSCc1ccc(CN(C)C)o1 [Ranitidine] — higher, 104%
- C#CCN[C@@H]1CCc2ccccc21 [Rasagiline] — lower, 91.8%
- COc1cc(C2Oc3cc(C4Oc5cc(O)cc(O)c5C(=O)C4O)ccc3OC2CO)ccc1O (centres undefined) [Silibinin] — lower, 95.6%
- Fc1ccc(CNc2ncnc3ccc(F)cc23)cc1 [Spautin 1] — lower, 66.4%
- Cn1c2cc(S(C)=O)sc2c2cnn(Cc3cccc(N)c3)c(=O)c21 (centres undefined) [TEPP-46] — lower, 97.4%
- CCCCCCCCCCCCCCOc1ccc(C(=O)O)o1 [TOFA] — higher, 103%
- CN1CC(=O)N2[C@H](c3ccc4c(c3)OCO4)c3[nH]c4ccccc4c3C[C@@H]2C1=O [Tadalafil] — higher, 102%

same assay, conditions: 10000 nM; 72 h

Point of comparison: Cn1c2cc(S(C)=O)sc2c2cnn(Cc3cccc(N)c3)c(=O)c21 (centres undefined) [TEPP-46], cell viability 90.6%. Against it:
- CC(C)(F)C[C@H](N[C@@H](c1ccc(-c2ccc(S(C)(=O)=O)cc2)cc1)C(F)(F)F)C(=O)NC1(C#N)CC1 [Odanacatib] — higher, 102%
- Nc1nc(O)c2c(CCc3ccc(C(=O)N[C@@H](CCC(=O)O)C(=O)O)cc3)c[nH]c2n1 [Pemetrexed] — lower, 26%
- C=C1NC(=O)c2cc(CN(C)c3ccc(C(=O)N[C@@H](CCC(=O)O)C(=O)O)s3)ccc2N1 [Raltitrexed] — lower, 26.6%
- CNC(=C[N+](=O)[O-])NCCSCc1ccc(CN(C)C)o1 [Ranitidine] — higher, 102%
- C#CCN[C@@H]1CCc2ccccc21 [Rasagiline] — higher, 97.2%
- NC(CCC(=O)NC(CSCc1ccc(Br)cc1)C(=O)NCC(=O)OC1CCCC1)C(=O)OC1CCCC1 (centres undefined) [S-para-Bromobenzylglutathione cyclopentyl diester] — higher, 98.9%
- COc1cc(C2Oc3cc(C4Oc5cc(O)cc(O)c5C(=O)C4O)ccc3OC2CO)ccc1O (centres undefined) [Silibinin] — higher, 95%
- Fc1ccc(CNc2ncnc3ccc(F)cc23)cc1 [Spautin 1] — lower, 26.7%
- CCCCCCCCCCCCCCOc1ccc(C(=O)O)o1 [TOFA] — lower, 90.1%
- CN1CC(=O)N2[C@H](c3ccc4c(c3)OCO4)c3[nH]c4ccccc4c3C[C@@H]2C1=O [Tadalafil] — higher, 103%

tested on: KCL-22; experiment: as above; details: 1 nM; 72 h
In short: as §1

Point of comparison: Cn1c2cc(S(C)=O)sc2c2cnn(Cc3cccc(N)c3)c(=O)c21 (centres undefined) [TEPP-46], cell viability 109%. Against it:
- CC(C)(F)C[C@H](N[C@@H](c1ccc(-c2ccc(S(C)(=O)=O)cc2)cc1)C(F)(F)F)C(=O)NC1(C#N)CC1 [Odanacatib] — higher, 128%
- Nc1nc(O)c2c(CCc3ccc(C(=O)N[C@@H](CCC(=O)O)C(=O)O)cc3)c[nH]c2n1 [Pemetrexed] — lower, 98.5%
- C=C1NC(=O)c2cc(CN(C)c3ccc(C(=O)N[C@@H](CCC(=O)O)C(=O)O)s3)ccc2N1 [Raltitrexed] — lower, 103%
- CNC(=C[N+](=O)[O-])NCCSCc1ccc(CN(C)C)o1 [Ranitidine] — lower, 100%
- C#CCN[C@@H]1CCc2ccccc21 [Rasagiline] — lower, 80.3%
- NC(CCC(=O)NC(CSCc1ccc(Br)cc1)C(=O)NCC(=O)OC1CCCC1)C(=O)OC1CCCC1 (centres undefined) [S-para-Bromobenzylglutathione cyclopentyl diester] — lower, 103%
- COc1cc(C2Oc3cc(C4Oc5cc(O)cc(O)c5C(=O)C4O)ccc3OC2CO)ccc1O (centres undefined) [Silibinin] — lower, 99.3%
- Fc1ccc(CNc2ncnc3ccc(F)cc23)cc1 [Spautin 1] — higher, 112%
- CCCCCCCCCCCCCCOc1ccc(C(=O)O)o1 [TOFA] — lower, 94.2%
- CN1CC(=O)N2[C@H](c3ccc4c(c3)OCO4)c3[nH]c4ccccc4c3C[C@@H]2C1=O [Tadalafil] — lower, 103%

same assay, conditions: 10 nM; 72 h

Point of comparison: CNC(=C[N+](=O)[O-])NCCSCc1ccc(CN(C)C)o1 [Ranitidine], cell viability 101%. Against it:
- CC(C)(F)C[C@H](N[C@@H](c1ccc(-c2ccc(S(C)(=O)=O)cc2)cc1)C(F)(F)F)C(=O)NC1(C#N)CC1 [Odanacatib] — lower, 96.9%
- Nc1nc(O)c2c(CCc3ccc(C(=O)N[C@@H](CCC(=O)O)C(=O)O)cc3)c[nH]c2n1 [Pemetrexed] — higher, 102%
- C=C1NC(=O)c2cc(CN(C)c3ccc(C(=O)N[C@@H](CCC(=O)O)C(=O)O)s3)ccc2N1 [Raltitrexed] — higher, 107%
- C#CCN[C@@H]1CCc2ccccc21 [Rasagiline] — higher, 108%
- NC(CCC(=O)NC(CSCc1ccc(Br)cc1)C(=O)NCC(=O)OC1CCCC1)C(=O)OC1CCCC1 (centres undefined) [S-para-Bromobenzylglutathione cyclopentyl diester] — lower, 97.9%
- COc1cc(C2Oc3cc(C4Oc5cc(O)cc(O)c5C(=O)C4O)ccc3OC2CO)ccc1O (centres undefined) [Silibinin] — lower, 95.3%
- Fc1ccc(CNc2ncnc3ccc(F)cc23)cc1 [Spautin 1] — higher, 113%
- Cn1c2cc(S(C)=O)sc2c2cnn(Cc3cccc(N)c3)c(=O)c21 (centres undefined) [TEPP-46] — lower, 96.8%
- CCCCCCCCCCCCCCOc1ccc(C(=O)O)o1 [TOFA] — lower, 90.6%
- CN1CC(=O)N2[C@H](c3ccc4c(c3)OCO4)c3[nH]c4ccccc4c3C[C@@H]2C1=O [Tadalafil] — lower, 89.2%

same assay, conditions: 100 nM; 72 h

Point of comparison: NC(CCC(=O)NC(CSCc1ccc(Br)cc1)C(=O)NCC(=O)OC1CCCC1)C(=O)OC1CCCC1 (centres undefined) [S-para-Bromobenzylglutathione cyclopentyl diester], cell viability 104%. Against it:
- CC(C)(F)C[C@H](N[C@@H](c1ccc(-c2ccc(S(C)(=O)=O)cc2)cc1)C(F)(F)F)C(=O)NC1(C#N)CC1 [Odanacatib] — the same, 104%
- Nc1nc(O)c2c(CCc3ccc(C(=O)N[C@@H](CCC(=O)O)C(=O)O)cc3)c[nH]c2n1 [Pemetrexed] — lower, 78.4%
- C=C1NC(=O)c2cc(CN(C)c3ccc(C(=O)N[C@@H](CCC(=O)O)C(=O)O)s3)ccc2N1 [Raltitrexed] — lower, 45.4%
- CNC(=C[N+](=O)[O-])NCCSCc1ccc(CN(C)C)o1 [Ranitidine] — lower, 103%
- C#CCN[C@@H]1CCc2ccccc21 [Rasagiline] — lower, 98.4%
